The target in the experiment is T1, SMO (Mus musculus, UniProt P56726).
T1 construct: endogenous in cells; host or cells: C3H10T1/2 (ATCC #CCL-226)
The experiment in a line: Smoothened (SMO)/Sonic Hedgehog (SHh) Transient Transcriptional Activation Assay (Gli-luciferase reporter in C3H10T1/2 cells). The class given is cell-based, murine. The settings on record: SHh 250 ng/ml, 20 hrs. An outline of the steps:
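Luminescence (Dual-Glo) measured after 20 h co-exposure at 37 °C to 250 ng/ml human SHh and compound at 2 uM down to 2 nM final. Cells were C3H10T1/2 carrying a transfected murine 10× Gli response-element luciferase construct with pEGFP, starved 20 h in 0.5% calf serum beforehand.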

Where [1] appears, read: C3H 10T1/2, 2 uM test compound, read-out: SMO % inhibition at 2 uM.
[2] abbreviates: C3H 10T1/2, 2 μM test compound, read-out: SMO CELL % INHIBITION @ 2 μM.

Counter-ions that a name gives are not always drawn. Like-named read-outs stand apart in the source and are kept apart here.

The text below walks through data of US20100029615A1, “BENZIMIDAZOLE DERIVATIVES” (priority 2006, published 2010).

T1 sequence (P56726 33-793): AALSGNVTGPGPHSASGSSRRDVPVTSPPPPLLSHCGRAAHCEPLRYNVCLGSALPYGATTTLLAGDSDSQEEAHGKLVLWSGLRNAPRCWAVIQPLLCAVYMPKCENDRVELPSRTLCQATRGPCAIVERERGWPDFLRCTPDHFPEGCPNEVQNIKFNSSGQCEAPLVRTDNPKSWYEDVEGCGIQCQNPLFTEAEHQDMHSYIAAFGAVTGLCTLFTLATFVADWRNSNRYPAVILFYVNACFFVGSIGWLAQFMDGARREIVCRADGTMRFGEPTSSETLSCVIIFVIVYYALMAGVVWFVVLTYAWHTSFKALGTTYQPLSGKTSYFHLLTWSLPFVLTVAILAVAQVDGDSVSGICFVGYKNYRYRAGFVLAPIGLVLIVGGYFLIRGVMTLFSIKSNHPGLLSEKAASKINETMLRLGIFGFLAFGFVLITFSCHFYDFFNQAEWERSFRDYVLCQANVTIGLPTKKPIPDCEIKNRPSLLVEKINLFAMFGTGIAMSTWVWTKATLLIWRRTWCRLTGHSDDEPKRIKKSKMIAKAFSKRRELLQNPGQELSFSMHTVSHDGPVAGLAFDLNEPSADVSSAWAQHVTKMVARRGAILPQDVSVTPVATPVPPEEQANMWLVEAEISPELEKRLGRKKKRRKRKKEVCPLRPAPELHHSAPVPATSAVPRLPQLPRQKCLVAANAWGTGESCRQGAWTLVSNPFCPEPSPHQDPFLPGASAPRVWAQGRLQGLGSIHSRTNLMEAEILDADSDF

What is called inhibition is the relative decrease from the control value, in per cent. For `CN(C(=O)c1ccc2c(c1)OCCO2)C1CCCC(c2nc3ccccc3n2C)C1` (stereo not shown) [Example 14, N-Methyl-N-(3-(1-methyl-1H-benzo[d]imidazol-2-yl)cyclohexyl)-2,3-dihydrobenzo[b][1,4]dioxine-6-carboxamide], the inhibition at 2 µM under setting [1] turned out to be 95%. Take `O=C(N[C@@H]1CCC[C@H](c2nc3ccccc3[nH]2)C1)c1ccc2oc(=O)[nH]c2c1` [Example 213, N-[(1R,3S)-3-(1H-benzimidazol-2-yl)cyclohexyl]-2-oxo-2,3-dihydro-1,3-benzoxazole-5-carboxamide triflouroacetate]: the inhibition at 2 µM under setting [2] was 73%. Same read-out and setting: the value for `Cc1ccc(C(=O)N[C@@H]2CCC[C@H](c3nc4ccccc4[nH]3)C2)c2ccccc12` [Example 183, N-[(1R,3S)-3-(1H-benzimidazol-2-yl)cyclohexyl]-4-methyl-1-naphthamide triflouroacetate] was 95%. Same read-out and setting: the result for `N#Cc1ccc(NC(=O)NC23CCCC(c4nc5cc(Cl)ccc5[nH]4)(C2)C3)cc1` [Example 270, 1-[5-(5-chloro-1H-benzimidazol-2-yl)bicyclo[3.1.1]hept-1-yl]-3-(4-cyanophenyl) urea] reads 107%; that for `O=C(NC1CCCC(c2nc3ccccc3[nH]2)C1)C1CCCO1` (stereo not shown) [Example 121, N-[3-(1H-benzimidazol-2-yl)cyclohexyl] tetrahydrofuran-2-carboxamide triflouroacetate], 94%; that for `CN1C[C@H](O)CC1C(=O)NC1CCCC(c2nc3ccccc3[nH]2)C1` (stereo partly drawn) [Example 113, (4R)-N-[3-(1H-benzimidazol-2-yl)cyclohexyl]-4-hydroxy-1-methyl-L-prolinamide triflouroacetate], 93%. On the same count and under the same terms, the value for `Cn1c(C(=O)N[C@@H]2CCC[C@H](c3nc4ccccc4[nH]3)C2)nc2ccccc21` [Example 175, N-[(1R,3S)-3-(1H-benzimidazol-2-yl)cyclohexyl]-1-methyl-1H-benzimidazole-2-carboxamide HCl] was 81%; that for `O=C(N[C@@H]1CCC[C@H](c2nc3ccccc3[nH]2)C1)c1cnc(O)c(Cl)c1` [Example 169, N-[(1R,3S)-3-(1H-benzimidazol-2-yl)cyclohexyl]-5-chloro-6-hydroxynicotin-amide HCl] was 93%.

In the case of `O=C(NC1CCCC(c2nc3ccccc3[nH]2)C1)c1cc(C2CC2)n[nH]1` (stereo not shown) [Example 114], the inhibition at 2 µM under setting [2] came out at 109%. On the same count and under the same terms, the value for `O=C(CN1C(=O)COc2cccnc21)NC1CCCC(c2nc3ccccc3[nH]2)C1` (stereo not shown) [Example 105, N-[3-(1H-benzimidazol-2-yl)cyclohexyl]-2-(3-oxo-2,3-dihydro-4H-pyrido[3,2-b][1,4]oxazin-4-yl)acetamide triflouroacetate] was 103%. On the same count and under the same terms, the result for `N#Cc1cccc(NC(=O)N[C@@H]2CCC[C@H](c3nc4ccccc4[nH]3)C2)c1` [Example 231, 1-[(1R,3S)-3-(1H-benzimidazol-2-yl)cyclohexyl] 3-(3-cyanophenyl)-urea] reads 103%. Same read-out and setting: the result for `O=C1CCc2cc(C(=O)N[C@@H]3CCC[C@H](c4nc5ccccc5[nH]4)C3)ccc2N1` [Example 220, N-[(1R,3S)-3-(1H-benzimidazol-2-yl)cyclohexyl]-2-oxo-1,2,3,4-tetrahydroquin-oline-6-carboxamide triflouroacetate] reads 81%; that for `O=C(NC1CCCC(c2nc3ccccc3[nH]2)C1)c1ccco1` (stereo not shown) [Example 56, N-[3-(1H-benzimidazol-2-yl)cyclohexyl]-2-furamide HCl], 51%.

For `Cn1c([C@H]2CCC[C@@H](NC(=O)c3ccc4c(c3)CCNC4)C2)nc2ccccc21` [Example 311, N-[(1R,3S)-3-(1-methyl-1H-benzimidazol-2-yl)cyclohexyl]-1,2,3,4-tetrahydroiso-quinoline-6-carboxamide HCl], the inhibition at 2 µM under setting [2] is 100%.

Consider `COc1cc(C(=O)NC2CCCC(c3nc4ccccc4[nH]3)C2)cc2c1OCCO2` (stereo not shown) [Example 139, N-[3-(1H-benzimidazol-2-yl)cyclohexyl]-8-methoxy-2,3-dihydro-1,4-benzodioxine-6-carboxamide triflouroacetate], for which the inhibition at 2 µM under setting [2] worked out at 105%.

For `O=C1COc2ccc(C(=O)N[C@@H]3CCCC(c4nc5ccccc5[nH]4)C3)cc2N1` (stereo partly drawn) [Example 294, N-[(1R)-3-(1H-benzimidazol-2-yl)cyclohexyl]-3-oxo-3,4-dihydro-2H-1,4-benzoxazine-6-carboxamide (+)-tartrate], the inhibition at 2 µM under setting [2] came to 62.5%. Take `CN1C(=O)COc2ccc(C(=O)N[C@H]3CCC[C@H](c4nc5ccccc5[nH]4)C3)cc21` [Example 249, N-(3-(1H-benzo[d]imidaz-ol-2-yl)cyclohexyl)-4-methyl-3-oxo-3,4-dihydro-2H-benzo[d][1,4]ox-azine-6-carboxamide HCl]: the inhibition at 2 µM under setting [2] was 109%. As for `COCCn1c(C2CCCC(NC(=O)c3ccc4c(c3)OCCO4)C2)nc2ccccc21` (stereo not shown) [Example 16, N-(3-(1-(2-Methoxyethyl)-1H-benzo[d]imidazol-2-yl]cyclohexyl)-2,3-dihydrobenzo[b][1,4]dioxine-6-carboxamide], the inhibition at 2 µM under setting [1] was determined as 59%. As for `CN1C(=O)COc2ccc(C(=O)N[C@@H]3CCC[C@H](c4nc5ccccc5[nH]4)C3)cc21` [Example 45, N-((1R,3S)-3-(1H-Benzo[d]midazol-2-yl)cyclohexyl)-4-methyl-3-oxo-3,4-dihydro-2H-benzo[b][1,4]oxazine-6-carboxamide], the inhibition at 2 µM under setting [1] amounted to 108%. For `O=C(N[C@@H]1CCC[C@H](c2nc3cc(C(F)(F)F)ccc3[nH]2)C1)c1n[nH]c2c1CCCC2` [Example 281, N-{(1R,3S)-3-[5-(trifluoromethyl)-1H-benzimidazol-2-yl]cyclohexyl]-4,5,6,7-tetrahydro-1H-indazol-3-carboxamide HCl], the inhibition at 2 µM under setting [2] stood at 98.5%. On the same count and under the same terms, the result for `O=C(N[C@@H]1CCC[C@H](c2nc3ccccc3[nH]2)C1)c1ccc2c(c1)CN(CC1CC1)CC2` [Example 267, N-[(1R,3S)-3-(1H-benzimidazol-2-yl)cyclohexyl]-2-(cyclopropyl-methyl)-1,2,3,4-tetrahydroiso-quinoline-7-carboxamide HCl] reads 103%; that for `O=C(N[C@@H]1CCC[C@H](c2nc3cc(C(F)(F)F)ccc3[nH]2)C1)c1ccc2c(c1)CNCC2` [Example 303, N-{(1R,3S)-3-[5-(trifluoromethyl)-1H-benzimidazol-2-yl]cyclohexyl}-1,2,3,4-tetrahydroiso-quinoline-7-carboxamide HCl], 111%.
